Results on two compounds are retold here after PMC5068545, “Glycan Specificity of P[19] Rotavirus and Comparison with Those of Related P Genotypes” (Journal of Virology, 2016).

Experiment [1] has as its target T1, P[19] VP8* (Human rotavirus A, UniProt A7YCM0).
T1 construct: gene VP4; VP8* domain (aa 46-231) of spike polyprotein VP4; E. coli BL21 GST fusion; GST cut with thrombin for NMR, kept in ELISA and glycan array
The experiment is described as follows: 1H-15N HSQC NMR titration. In kind it is binding. Conditions: 20°C, pH 8.0, 10 mM Tris-HCl, 100 mM NaCl; 0.25 mM 15N-labelled VP8*, GST removed. From the text:
1H-15N HSQC NMR titration on P[19]

A further experiment has as its target T2, P[4] VP8* (Human rotavirus (SEROTYPE 2 / STRAIN DS1), UniProt P11196).
T2 construct: VP8* domain of spike polyprotein VP4; GST fusion from E. coli BL21; DS1 is only the modelling template
The experiment is described as follows: ELISA-based oligosaccharide binding. The settings on record: GST-VP8*; labelled compound (biotin conjugate, multivalent); weak signal. The source says:
ELISA-based oligosaccharide binding on P[4] […] RVs

The target in the next experiment is T3, P[8] VP8* (Human rotavirus A, UniProt A0A509GLV6).
T3 construct: VP8* domain of spike polyprotein VP4; GST fusion from E. coli BL21
As to the kind of experiment: ELISA-based oligosaccharide binding. Conditions: GST-VP8*; labelled compound (biotin conjugate, multivalent); weak signal. From the text: ELISA-based oligosaccharide binding on P[8] […] RVs

Experiment [2] has as its target T1, P[19] VP8*. The experiment is described as follows: ELISA-based oligosaccharide binding. The settings on record: GST-VP8*; labelled compound (biotin conjugate, multivalent); weak signal. The source says: ELISA-based oligosaccharide binding on P[19] […] RVs recognized LNFPI and LNT | Low binding signals were detected for all four P[II] RVs

With `CC(=O)N[C@H]1[C@H](O[C@H]2[C@@H](O)[C@@H](CO)O[C@@H](O[C@H]3[C@H](O)[C@@H](O)C(O)O[C@@H]3CO)[C@@H]2O)O[C@H](CO)[C@@H](O)[C@@H]1O[C@@H]1O[C@H](CO)[C@H](O)[C@H](O)[C@H]1O[C@@H]1O[C@@H](C)[C@@H](O)[C@@H](O)[C@@H]1O` (stereo partly shown) [LNFPI, Fucα1-2Galβ1-3GlcNAcβ1-3Galβ1-4Glc], binding at P[19] VP8* [1] was characterised by a dissociation constant (Kd) of 2600 µM.
Consider `CC(=O)N[C@H]1C(O)O[C@H](CO)[C@@H](O)[C@@H]1O[C@@H]1O[C@H](CO)[C@H](O)[C@H](O)[C@H]1O` (stereo partly shown) [lacto-N-biose, Galβ1-3GlcNAc], for which the ELISA-based oligosaccharide binding entry on P[4] VP8*, at P[8] VP8* and at P[19] VP8* [2] was “Low binding signals were detected for all four P[II] RVs” each time.
